The values that follow come from patent US9682955B2, “Quinazoline derivatives useful as CB-1 inverse agonists” (Janssen Pharmaceutica NV, priority 2014, dated 2017).

Assay [1] concerns the target Human CB1R (Cannabanoid receptor 1) (Homo sapiens (Human), UniProt P21554). The experiment in a line: CB-1 in vitro cAMP assay (HTRF). It counts as cell-based. The conditions noted are these: mean where tested more than once. From the text:
(§1) CB1 and CB2 receptors are Gi-coupled GPCR. Activation of CB1 and CB2 receptors results in a decrease in cAMP production. An inverse agonist of the CB1 or CB2 receptor results in the opposite effect, an increase of cAMP production. The principle of this assay is based on HTRF® technology (Homogeneous Time-Resolved Fluorescence). The method is a competitive immunoassay between native cAMP produced by cells and the cAMP labeled with the fluorophore d2. The tracer binding is quantified by a Mab anti-cAMP labeled with Eu3+TBP-NHS Cryptate (supplied as part of the assay kit). The specific signal (i.e. energy transfer) is inversely proportional to the concentration of cAMP in the standard or sample.
(§2) Human CB1R (Cannabanoid receptor 1) was stably transfected in HEK-293 cells (DiscoveRx, cat: 93-0200C1). Human CB2R (Cannabanoid receptor 2) was stably transfected in HEK-293 cells (DiscoveRx, cat: 93-0201C1). Cell cultures were maintained in media: DMEM (Invitrogen Cat#12430-054) supplemented with 10% HI FBS (Invitrogen Cat#16140-071), 1% L-glutamine (Invitrogen Cat#25030-081), 0.2 mg/ml Hygromycin B (Invitrogen Cat#10687-010), 600 μg/mL G418 (Invitrogen Cat#10131-035), and 1× Penn/Strep (Invitrogen 15140-122). After cell expansion, aliquots were cryo-stored in media containing 5% DMSO (Pierce Cat#20684).
(§3) One day prior to experiments media was warmed to 37° C. and the cryo-stored cells were thawed in a 37° C. water bath. The cells were then added to media (10× volume) and the mixture was centrifugated at 1000 RPM for 5 min. The supernate was removed and the cells were re-suspended in media. A sample of the cell suspension was evaluated on a Cedex XS automated cell counter (Innovatis Systems) to determine viable cells/ml. Additional media was added to the cells to achieve a final cell density of 4E5 cells/mL. The cells were then plated into 384 well PDL white solid bottom plates (Greiner, Cat#781945) at 20 μL per well using a Multidrop (Thermo Scientific). Cells were removed from Row P (location of cAMP standards). Two columns of cells were plated into a clear bottom 384 well PDL coated plate (Greiner, Cat#781944) to view confluence the day of the assay. The cell plates were lidded and stored for 15 minutes in a hood, then transferred to an incubator (37° C., 5% CO2, 95% humidity) overnight.
(§4) DMSO was added to all wells of 384 well V bottom polystyrene plate (Greiner, Cat#781280) except to columns 1 and 13, rows O and P and wells M13-M23 and N13-N23. Test compounds (60 μL, 10 mM) were added to Column 1 and 13 (A1 through N1 and A13 through L13). Test compounds were serially diluted 1/3 by transferring and mixing 20 μl sample with 40 μL DMSO.
(§5) DMSO (40 μL) was added to wells of 384 well V bottom polystyrene plate: O2 through O11, M14 through M23, N14 through N23, and O14 through O23. AM630 (also known as [6-iodo-2-methyl-1-[2-(4-morpholinyl)ethyl]-1H-indol-3-yl](4-methoxyphenyl)-methanone, Cayman Chemical, Cat#10006974) (60 μL, 10 mM) was added to O1; and 1-(2,4-dichlorophenyl)-7-[(4-fluorophenyl)methylene]-4,5,6,7-tetrahydro-N-1-piperidinyl-1H-indazole-3-carboxamide (60 μL, 10 mM) was added to N13. The control was serially diluted 1/3 by transferring and mixing 20 μl sample with 40 μL DMSO. This process resulted 11 doses per control, 10 mM to […].
(§6) Cells plated the day prior to the assay in clear bottom plates were viewed on an inverse microscope to ensure confluency in the range of 60-75%. […]

Assay [2] has as its target Human CB2R (Cannabanoid receptor 2) (Homo sapiens (Human), UniProt P34972). Kind of assay: CB-2 in vitro cAMP assay (HTRF). The conditions noted are these: mean where tested more than once. Format: cell-based.
Description: as §1, §2, §3, §4, §5, §6

Where only a bound is given, the exact number is not on record here.

Chain of Human CB2R (Cannabanoid receptor 2) (P34972 whole entry): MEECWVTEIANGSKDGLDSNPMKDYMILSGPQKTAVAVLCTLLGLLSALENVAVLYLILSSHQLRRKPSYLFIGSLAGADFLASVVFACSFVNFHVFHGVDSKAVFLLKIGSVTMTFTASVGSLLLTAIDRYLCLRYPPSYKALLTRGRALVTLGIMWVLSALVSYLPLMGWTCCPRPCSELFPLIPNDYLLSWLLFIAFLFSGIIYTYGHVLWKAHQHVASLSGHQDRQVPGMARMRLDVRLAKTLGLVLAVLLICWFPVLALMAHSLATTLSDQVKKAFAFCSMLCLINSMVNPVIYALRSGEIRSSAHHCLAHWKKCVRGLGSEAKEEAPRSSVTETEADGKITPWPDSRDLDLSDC
Chain of Human CB1R (Cannabanoid receptor 1) (P21554 whole entry): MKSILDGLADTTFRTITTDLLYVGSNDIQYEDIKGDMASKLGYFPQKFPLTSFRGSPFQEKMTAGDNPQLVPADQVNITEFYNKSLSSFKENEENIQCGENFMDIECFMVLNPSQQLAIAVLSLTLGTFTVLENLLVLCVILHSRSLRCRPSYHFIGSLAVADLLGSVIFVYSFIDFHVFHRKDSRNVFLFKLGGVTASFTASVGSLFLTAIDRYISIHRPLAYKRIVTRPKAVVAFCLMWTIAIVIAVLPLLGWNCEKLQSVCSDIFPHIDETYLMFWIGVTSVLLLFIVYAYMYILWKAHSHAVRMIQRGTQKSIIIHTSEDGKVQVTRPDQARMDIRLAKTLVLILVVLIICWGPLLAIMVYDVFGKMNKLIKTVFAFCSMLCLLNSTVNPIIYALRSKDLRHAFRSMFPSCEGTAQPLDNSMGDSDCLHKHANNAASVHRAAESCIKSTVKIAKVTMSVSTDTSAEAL

Turning to `C[C@H](Nc1ncnc2ccc(C(c3ccc(Cl)cc3)c3ccc(Cl)cc3)cc12)c1cccc(C(F)(F)F)c1` (single isomer, unassigned) [Compound #112], the concentration for a half-maximal effect (EC50) in assay [1] stood at 10 nM; in assay [2], 4700 nM.

For `C[C@@H](Nc1ncnc2ccc(C(c3ccc(Cl)cc3)c3ccc(Cl)cc3)cc12)c1cccc(C(F)(F)F)c1` (single isomer, unassigned) [compound 115], the half-maximal effective concentration (EC50) in assay [1] came to 34 nM; in assay [2], 8200 nM.

Regarding `O=S(=O)(N1CCC(Nc2nc(Cl)nc3ccc(C(c4ccc(Cl)cc4)c4ccc(Cl)cc4)cc23)CC1)C(F)(F)F` [Compound 200], the EC50 came to 9 nM in assay [1] and 6500 nM in assay [2].

Take `O=C(O)c1cccc(CCNc2ncnc3ccc(C(c4ccc(Cl)cc4)c4ccc(Cl)cc4)cc23)c1` [Compound #2, 3-(2-((6-(bis(4-chlorophenyl)methyl)quinazolin-4-yl)amino)ethyl)benzoic acid]: the EC50 in assay [1] was 325 nM; in assay [2] it was 1060 nM.

Consider `O=C(O)COc1ccc(S(=O)(=O)N2CCC(Nc3ncnc4ccc(C(c5ccc(Cl)cc5)c5ccc(Cl)cc5)cc34)CC2)cc1` [Compound #3, 2-(4-((4-((6-(bis(4-chlorophenyl)methyl)quinazolin-4-yl)amino)piperidin-1-yl)sulfonyl)phenoxy)acetic acid], for which the EC50 in assay [1] was 98 nM; in assay [2], 3430 nM.

For `CCOC(=O)COc1ccc(S(=O)(=O)N2CCC(Nc3ncnc4ccc(C(c5ccc(Cl)cc5)c5ccc(Cl)cc5)cc34)CC2)cc1` [Compound #4, Ethyl 2-(4-((4-((6-(bis(4-chlorophenyl)methyl)quinazolin-4-yl)amino)piperidin-1-yl)sulfonyl)phenoxy)acetate], the figures for the concentration for a half-maximal effect (EC50) in assay [1] and in assay [2] were 9 nM and 170 nM, respectively.

Take `O=S1(=O)CCN(CCNc2ncnc3ccc(C(c4ccc(Cl)cc4)c4ccc(Cl)cc4)cc23)CC1` [Compound #6, 4-(2-((6-(bis(4-chlorophenyl)methyl)quinazolin-4-yl)amino)ethyl)thiomorpholine 1,1-dioxide]: the concentration for a half-maximal effect (EC50) in assay [1] worked out at 35 nM; in assay [2], 455 nM.

Turning to `O=S(=O)(c1ccc(O)cc1)N1CCC(Nc2ncnc3ccc(C(c4ccc(Cl)cc4)c4ccc(Cl)cc4)cc23)CC1` [Compound #8], the EC50 came out at 8 nM in assay [1] and 248 nM in assay [2].

In the case of `O=S(=O)(NC1CCN(c2ncnc3ccc(C(c4ccc(Cl)cc4)c4ccc(Cl)cc4)cc23)C1)C(F)(F)F` (centres unmarked) [Compound #9, N-(1-(6-(bis(4-chlorophenyl)methyl)quinazolin-4-yl)pyrrolidin-3-yl)trifluoromethanesulfonamide], the values for the EC50 in assay [1] and in assay [2] were 191 nM and 150 nM, respectively.

As for `O=C(O)c1ccc(CCN2CCC(Nc3ncnc4ccc(C(c5ccc(Cl)cc5)c5ccc(Cl)cc5)cc34)CC2)cc1` [Compound #10, 4-(2-(4-((6-(bis(4-chlorophenyl)methyl)quinazolin-4-yl)amino)piperidin-1-yl)ethyl)benzoic acid], the concentration for a half-maximal effect (EC50) in assay [1] is 894 nM; in assay [2] it was 998 nM.

With `Clc1ccc(C(c2ccc(Cl)cc2)c2ccc3ncnc(NC4CCN(CCc5ccccc5)CC4)c3c2)cc1` [Compound #11, 6-(bis(4-chlorophenyl)methyl)-N-(1-phenethylpiperidin-4-yl)quinazolin-4-amine], the results for the concentration giving a half-maximal response (EC50) in assay [1] and in assay [2] were 124 nM and > 10000 nM, respectively.

For the molecule `O=C(O)c1cccc(CCN2CCC(Nc3ncnc4ccc(C(c5ccc(Cl)cc5)c5ccc(Cl)cc5)cc34)CC2)c1` [Compound #13, 3-(2-(4-(6-(bis(4-chlorophenyl)methyl)quinazolin-4-ylamino)piperidin-1-yl)ethyl)benzoic acid], the concentration giving a half-maximal response (EC50) turned out to be 1240 nM in assay [1] and 3050 nM in assay [2].

Regarding `O=C(O)c1ccc(CN2CCC(Nc3ncnc4ccc(C(c5ccc(Cl)cc5)c5ccc(Cl)cc5)cc34)C2)cc1` (centres unmarked) [Compound #14, 4-((3-((6-(bis(4-chlorophenyl)methyl)quinazolin-4-yl)amino)pyrrolidin-1-yl)methyl)benzoic acid], the EC50 was found to be 1120 nM in assay [1] and 8700 nM in assay [2].

With `O=C(O)c1ccc(C(c2ccc(Cl)cc2)c2ccc3ncnc(NC4CCN(S(=O)(=O)C(F)(F)F)CC4)c3c2)cc1` (centres unmarked) [Compound #16, 4-((4-chlorophenyl)(4-((1-((trifluoromethyl)sulfonyl)piperidin-4-yl)amino)quinazolin-6-yl)methyl)benzoic acid], the EC50 in assay [1] was 343 nM; in assay [2], > 10000 nM.

Take `O=C(O)c1csc(CN2CCC(Nc3ncnc4ccc(C(c5ccc(Cl)cc5)c5ccc(Cl)cc5)cc34)CC2)c1` [Compound #18, 5-((4-((6-(bis(4-chlorophenyl)methyl)quinazolin-4-yl)amino)piperidin-1-yl)methyl)thiophene-3-carboxylic acid]: the concentration for a half-maximal effect (EC50) in assay [1] is 165 nM; in assay [2], 6260 nM.

In the case of `N#Cc1ccc(C(c2ccc(Cl)cc2)c2ccc3ncnc(NC4CCN(S(=O)(=O)C(F)(F)F)CC4)c3c2)cc1` (centres unmarked) [Compound #19, 4-((4-chlorophenyl)(4-((1-((trifluoromethyl)sulfonyl)piperidin-4-yl)amino)quinazolin-6-yl)methyl)benzonitrile], the EC50 in assay [1] amounted to 6 nM; in assay [2] it was 157 nM.

`O=S(=O)(N1CCC(Nc2ncnc3ccc(C(c4ccc(Cl)cc4)c4ccc(Br)cc4)cc23)CC1)C(F)(F)F` (centres unmarked) [Compound #20, 6-((4-bromophenyl)(4-chlorophenyl)methyl)-N-(1-((trifluoromethyl)sulfonyl)piperidin-4-yl)quinazolin-4-amine]: the concentration for a half-maximal effect (EC50) stood at 17 nM in assay [1] and 218 nM in assay [2].

As for `COc1cc(S(=O)(=O)N2CCC(Nc3ncnc4ccc(C(c5ccc(Cl)cc5)c5ccc(Cl)cc5)cc34)CC2)ccc1C(=O)O` [Compound #22, 4-((4-((6-(bis(4-chlorophenyl)methyl)quinazolin-4-yl)amino)piperidin-1-yl)sulfonyl)-2-methoxybenzoic acid], the EC50 in assay [1] was found to be 23 nM; in assay [2] it was 280 nM.

In the case of `O=C(O)c1ccc(S(=O)(=O)N2CCC(Nc3ncnc4ccc(C(c5ccc(Cl)cc5)c5ccc(Cl)cc5)cc34)CC2)cc1Cl` [Compound #23, 4-((4-((6-(bis(4-chlorophenyl)methyl)quinazolin-4-yl)amino)piperidin-1-yl)sulfonyl)-2-chlorobenzoic acid], the 50% effective concentration (EC50) in assay [1] was found to be 19 nM; in assay [2], 434 nM.

In the case of `O=C(O)c1ccc(S(=O)(=O)N2CCC(Nc3ncnc4ccc(C(c5ccc(Cl)cc5)c5ccc(Cl)cc5)cc34)CC2)s1` [Compound #25, 5-((4-((6-(bis(4-chlorophenyl)methyl)quinazolin-4-yl)amino)piperidin-1-yl)sulfonyl)thiophene-2-carboxylic acid], the values for the EC50 in assay [1] and in assay [2] were 9 nM and 278 nM, respectively.

For `O=C(NCCCOc1ccc(CO)cc1)c1ccc(S(=O)(=O)N2CCC(Nc3ncnc4ccc(C(c5ccc(Cl)cc5)c5ccc(Cl)cc5)cc34)CC2)cc1` [Compound #26, 4-((4-((6-(bis(4-chlorophenyl)methyl)quinazolin-4-yl)amino)piperidin-1-yl)sulfonyl)-N-(3-(4-(hydroxymethyl)phenoxy)propyl)benzamide], the half-maximal effective concentration (EC50) is 20 nM in assay [1] and > 10000 nM in assay [2].

Turning to `Oc1cccc(CN2CCC(Nc3ncnc4ccc(C(c5ccc(Cl)cc5)c5ccc(Cl)cc5)cc34)CC2)c1` [Compound #28, 3-((4-((6-(bis(4-chlorophenyl)methyl)quinazolin-4-yl)amino)piperidin-1-yl)methyl)phenol], the half-maximal effective concentration (EC50) is 69 nM in assay [1] and > 10000 nM in assay [2].
